Reference: US8815935B2, “Inhibitors of protein prenyltransferases” (The Regents of the University of California, priority 2008, dated 2014)

Assays:
[1] = tested on: Rab5b geranylgeranylation in NIH3T3 cells; experiment: Rab5b immunoblot and subcellular fractionation in NIH3T3 cells; type: cell-based; conditions: 48 hours
Description: The inhibition of Rab geranylgeranylation in cells (FIG. 43) was examined according to (29). Briefly, whole cell lysates were subjected to 15% SDS-PAGE containing 4M urea followed by immunoblotting with the antibody against Rab5b (Santa Cruz: sc-598) or actin. Subcellular fractionations (FIG. 44) were performed as described by Gomes et al. (30). Briefly, cells were treated with P49-F6 for 48 hours. After osmotic lysis, cell debris were removed by centrifugation at 500×g for 10 min, and the supernatant was subjected to ultracentrifugation at 100,000×g for 60 min. The supernatant of ultracentrifugation was collected as a soluble fraction. The pellet was collected as a membrane fraction. These fractions were subjected to electrophoresis on 10% SDS-PAGE gels followed by immunoblotting with the antibody against Rab5b. RhoGDI (Santa Cruz: sc-360) and Na^+/K^+ ATPase (Sigma: A276) were used as markers for soluble and membrane fractions, respectively.

[2] = tested on: Panc-1; experiment: Cell cycle distribution by flow cytometry, PANC-1; type: cell-based, human; conditions: 10 μM, 48 hours
Description: (§1) Cell viability was determined by Cell Counting Kit-8 (CCK-8, Dojindo, Kumamoto, Japan) as described previously (31). Cell viability was calculated relative to the DMSO control. Cell cycle profile was analyzed by flow cytometry as described previously (32).

[3] = tested on: PANC-1 xenograft tumor; experiment: PANC-1 xenograft tumor growth in SCID mice; type: in vivo; conditions: 1.16 mg/kg i.p., six times per week
Description: Xenograft tumor experiments have shown that GGTI's can inhibit PANC-1 tumor growth in mice. Seven SCID mice (six weeks old) received a subcutaneous implantation of 5 million PANC-1 cells. The mice were supplied with food and water for 14 days before treatment was started. The treatment group received 160 uM GGTI (p61A6) in 0.25 ml 0.9% NaCl while the control group received 0.25 ml 0.9% NaCl. Each dosage was injected 3 times per week. These dosage were designed to administer p61A6 at approximately 1.16 mg/kg of body weight. Also, since the mouse has about 2 ml blood, the final concentration of p61A6 in vivo was approximately 20 uM. The final DMSO concentration in the control group was approximately 0.8%.
Additional xenograft tumor experiments have shown that GGTI's can inhibit PANC-1 tumor growth in mice and reduce the size of the tumor. Six SCID mice (six weeks old) received a subcutaneous implantation of 3 million PANC-1 cells. The mice were supplied with food and water for 14 days before treatment began. […] Every two weeks each mouse's body weight and tumor volume was measured.

[4] = tested on: MDA-MB-231; experiment: Cell cycle distribution by flow cytometry, MDA-MB-231; type: cell-based, human; conditions: 10 μM, 48 hours
Description: as §1

[5] = tested on: K562 cells; experiment: Cell cycle profile by flow cytometry, K562; type: cell-based, human; conditions: 48 hours, FIG. 24A
Description: K562 cells were treated with indicated concentrations (mM) of P3-E5 (ranging from […]) or GGTI-298 (ranging from […]) for 48 hours. Cell cycle profiles were monitored by flow cytometry. Percentages of cells in each phase of the cell cycle are indicated by different colors. Red: G0/G1 phase. Black: S phase. Gray: G2/M phase.

| SMILES | inhibition of Rab5b geranylgeranylation (slow migrating unmodified Rab5b band) [1] | Percent G2/M, PANC-1 ([2]; DMSO 24.21) | Percent G0/G1, PANC-1 ([2]; DMSO 42.08) | PANC-1 xenograft tumor growth [3] | Percent G2/M, MDA-MB-231 ([4]; DMSO 7.74) | Percent G0/G1, MDA-MB-231 ([4]; DMSO 73.78) | cell cycle effect in K562 cells [5] |
| --- | --- | --- | --- | --- | --- | --- | --- |
| Cc1ccccc1S(=O)(=O)N1C(c2ccc(Cl)cc2)C(C(=O)NC(Cc2ccccc2)C(N)=O)=CC1C(C)(C)C (stereo not shown) [P61-A6] | did not inhibit geranylgeranylation of Rab5b | 19.81% | 54.13% | almost complete inhibition | 5.15% | 85.16% |  |
| Cc1ccccc1S(=O)(=O)N1[C@@H](c2cccc(Cl)c2)C(C(=O)O)=CC[C@H]1c1ccc(Cl)cc1 [P3-E5] |  |  |  |  |  |  | induces G1 arrest |
